What was measured:
DDAH1 = DDAH1 gene expression (real-time RT-PCR) in endothelial cells; format: cell-based; details: human umbilical endothelial cells, 24 hours, FIG. 1A
Method: (§1) Human umbilical endothelial cells were seeded in 6-well plates (50,000 cells per well) and incubated with EGM (endothelial cell growth medium with bullet kit, Lonza) overnight. Then, triplicate wells were treated with indicated concentrations of cerivastatin in 2 ml of EGM. After 24 hours, total RNA was extracted using the RNeasy Kit (Qiagen, Valencia, Calif. After reverse transcription (RT) using the High Capacity cDNA Reverse Transcription Kit (Applied Biosystems, Foster City, Calif.), PCR was performed using an ABI Prism 7500 Sequence Detection System (Applied Biosystems, Foster City, Calif.) and QuantiTect SYBR Green PCR Master Mix (Qiagen, Valencia, Calif.). All reactions were carried out in triplicate, and each mRNA copy level was quantified using comparative CT method. Expression of actin was used as an endogenous control in all experiments and relative fold changes were calculated. All data were expressed as the means±standard deviation. The gene-specific forward and reverse primer sequences were • 5′-[…]-3′(SEQ ID NO: 2) and 5′-[…]-3′ (SEQ ID NO: 3) for actin; • 5′-[…]-3′ (SEQ ID NO: 4) and 5′-ggggtgttgaagcaat-3′ (SEQ ID NO: 5) for DDAH-1; • 5′-[…]-3′ (SEQ ID NO: 6) and 5′-[…]-3′ (SEQ ID NO: 7) for DDAH-2.

DDAH2 = DDAH2 gene expression (real-time RT-PCR) in endothelial cells; format: cell-based; details: human umbilical endothelial cells, 24 hours, dose dependent, FIG. 1B
Method: as §1

CCR2 = CCR2 gene expression (real-time RT-PCR) in THP-1 cells; format: cell-based; details: human THP-1 cells, TNF-α + 10 μM statin, FIG. 2B
Method: THP-1 cells were obtained from the American Tissue Type Culture Collection (ATCC). Cells were maintained in RPMI-1640 (Mediatech, Manassas, Va.) containing 10% fetal bovine serum (FBS; Sigma-Aldrich) and 1% penicillin/streptomycin (Sigma-Aldrich), and incubated in a humidified incubator containing 5% CO2/95% air at 37° C. In all experiments, cells were seeded at the concentration of 5×10^5 cells/mL in 12 well plates and then various statins were added to the medium. After 1 h, […] at a final concentration of 100 ng/ml or TNF-[…] at a final concentration of 10 ng/mL was added to the cultures. Cell pellets were collected for RNA and protein isolation.
Total RNA was extracted using the RNeasy Kit (Qiagen, Valencia, Calif.) according to the manufacturer's instructions. After reverse transcription (RT) using the High Capacity cDNA Reverse Transcription Kit (Applied Biosystems, Foster City, Calif.), PCR was performed using an ABI Prism 7500 Sequence Detection System (Applied Biosystems, Foster City, Calif.) and QuantiTect SYBR Green PCR Master Mix (Qiagen, Valencia, Calif.). All reactions were carried out in triplicate, and each mRNA copy level was quantified using comparative CT method. Expression of actin was used as an endogenous control in all experiments and relative fold changes were calculated. All data were expressed as the means±standard deviation. […]

rat model of PAH [1] = assay: PA pressure by right heart catheterization in MCT rat model of PAH; format: in vivo; details: intratracheal, twice weekly, 2 mg/ml in PBS, day 42, relative to MCT injection PAH model
Method: (§2) PAH was induced in adult male Sprague-Dawley rats (˜375 to 425 g, n=12, Harlan Laboratories) by a single, subcutaneous injection of monocrotnil (MCT) (60 mg/kg; n=24). Schultze, A. E. and Roth, R. A. J. Toxicol. Environ. Health. B, Crit. Rev. 1(4): 271-346 (1998). The animals injected with MCT were randomly assigned to 2 groups that received intratracheal (I.T.) aerosol instillation (MicroSprayer® Aerosolizer Model IA-1B, PennCentury, Inc.) of PBS twice weekly (200 μl; n=6), and a second group received IT. aerosol instillation of Cerivastatin twice weekly (2 mg/ml in PBS; n=6 I.T. instillations of PBS and Cerivastatin were administered the day of MCT injection until the rats were euthanized on day 42.
Echocardiography was performed at day 14, 28, and 42. Right heart catheterization was performed on day 42 before being euthanized. Sedation was induced by placing the rat in an anesthesia induction chamber with gas flow at 1 l/min, and the isoflurane was delivered via vaporizer at 3-4%. After induction, the rat was intubated and remained anesthetized with inhalant isoflurane at 1% for echo and 2% for right heart catheterization.
A 1.4-F micromanometer-tipped Millar pressure catheter (Millar Instruments) was used to measure systolic (sPAP), mean (mPAP), and diastolic PA pressure (dPAP) in all rats. […]

rat model of PAH [2] = assay: Echocardiography in MCT rat model of PAH; format: in vivo; details: intratracheal, twice weekly, 2 mg/ml in PBS
Method: PAH was induced in adult male Sprague-Dawley rats ( 375 to 425 g, n=12, Harlan Laboratories) by a single, subcutaneous injection of monocrotnil (MCT) (60 mg/kg; n=24). Schultze, A. E. and Roth, R. A. J. Toxicol. Environ. Health. B, Crit. Rev. 1(4): 271-346 (1998). The animals injected with MCT were randomly assigned to 2 groups that received intratracheal (I.T.) aerosol instillation (MicroSprayer® Aerosolizer Model IA-1B, PennCentury, Inc.) of PBS twice weekly (200 μl; n=6), and a second group received IT. aerosol instillation of Cerivastatin twice weekly (2 mg/ml in PBS; n=6 I.T. instillations of PBS and Cerivastatin were administered the day of MCT injection until the rats were euthanized on day 42. Echocardiography was performed at day 14, 28, and 42. Right heart catheterization was performed on day 42 before being euthanized. Sedation was induced by placing the rat in an anesthesia induction chamber with gas flow at 1 l/min, and the isoflurane was delivered via vaporizer at 3-4%. After induction, the rat was intubated and remained anesthetized with inhalant isoflurane at 1% for echo and 2% for right heart catheterization. After shaving the chest, 70% isopropyl alcohol was applied as the ultrasound transmission media and transthoracic echocardiography was performed (GE vivid i with […]-RS linear array transducer, 5.0-13.0 MHz). The 2-D modality was applied to measure PA diameter at the level of the pulmonary outflow tract from the parasternal short-axis view. PA acceleration time (PAAT) and PA flow velocity time integral (VTI) were measured using pulse-wave Doppler with the sample volume centrally positioned in the PA distal to the pulmonary valve. Angle correction was used to adjust the pulse-wave cursor such that it was positioned parallel to pulmonary artery flow. By combining PA VTI with the PA cross-sectional area, echocardiographically derived stroke volume was determined. M-mode was applied to measure right ventricular cavity thickness during end diastole using the parasternal long-axis view obtained from the right side of the rat.

rat model of PAH [3] = assay: RV hypertrophy (RV weight ratio) in MCT rat model of PAH; format: in vivo; details: intratracheal, twice weekly, 2 mg/ml in PBS, day 42, relative to MCT injection PAH model, FIG. 6
Method: as §2, with “42. After recording hemodynamic measurements and collecting blood, the animals were euthanized under deep anesthesia (isoflurane 5%) and the lungs and heart were isolated. The RV free wall was dissected from the left ventricle and interventricular septum (IVS), and the wet weight of each was recorded. RV hypertrophy was obtained as a RV weight/(LV+IVS weights) ratio.” for “42.”

[4] = tested on: pulmonary aterial hypertension; details: injected intraperitoneally; cited from earlier work

| Structure (SMILES) | effect on the expression of DDAH1 (relative mRNA level) (DDAH1) | effect on the expression of DDAH2 (relative mRNA level) (DDAH2) | CCR2 expression (CCR2) | systolic pulmonary artery pressure (sPAP) (rat model of PAH [1]; FIG. 3) | mean pulmonary artery pressure (mPAP) (rat model of PAH [1]; FIG. 4) | pulmonary artery acceleration time (PAAT) (rat model of PAH [2]; FIG. 7A (plotted in ms)) | mean right ventricle thickening (RV cavity thickness) (rat model of PAH [2]; relative to MCT injection PAH model, FIGS. 5A and 5B) | PAAT as percent of the control (rat model of PAH [2]; MCT alone 40.5% of the control, FIG. 7B) | right ventricular (RV) weight ratio (RV/(LV+septum)) (rat model of PAH [3]) | improvement of pulmonary arterial hypertension [4] |
| --- | --- | --- | --- | --- | --- | --- | --- | --- | --- | --- |
| COCc1c(C(C)C)nc(C(C)C)c(/C=C/[C@@H](O)C[C@@H](O)CC(=O)O)c1-c1ccc(F)cc1 [cerivastatin, (3R,5S,6E)-7-[4-(4-fluorophenyl)-5-(methoxymethyl)-2,6-bis(propan-2-yl)pyridin-3-yl]-3,5-dihydroxyhept-6-enoic acid] | relatively small and non-concentration dependent effect | more than 600% | reduces CCR2 | statistically significant decrease | statistically significant decrease | significantly increased | significantly reduced | 60.7 % of the control | significantly reduced |  |
| CC(C)c1c(C(=O)Nc2ccccc2)c(-c2ccccc2)c(-c2ccc(F)cc2)n1CC[C@@H](O)C[C@@H](O)CC(=O)O [atorvastatin] |  |  |  |  |  |  |  |  |  | not |

— patent US8586527B2, “Cerivastatin to treat pulmonary disorders” (priority 2011, dated 2013)
